Test results published in publication PMC3876027 (Journal of medicinal chemistry, 2013).
Entries after “also recorded” stand apart in the source; their conditions may differ.

Columns and labels:
[1] = test system: human M1-M4; experiment: human mAChR selectivity, functional assay at hM1-M4; assay type: cell-based; settings: for IC50: read-out: hM1-M4 IC50, each of M1, M2, M3, M4
[2] = hepatic microsomal intrinsic clearance, cynomolgus monkey; assay type: in vitro ADME
[3] = IV pharmacokinetics in male cynomolgus monkey; assay type: in vivo; settings: plasma, 1 mg/kg
[4] = hepatic microsomal intrinsic clearance, human; assay type: in vitro ADME; settings: liver microsomes
[5] = molecular target: T1, hM5 (Homo sapiens, UniProt P08912); experiment: [3H]-NMS competition binding in membranes prepared from hM5 cells; settings: N=3; compared to atropine
T1 sequence (P08912 1-532): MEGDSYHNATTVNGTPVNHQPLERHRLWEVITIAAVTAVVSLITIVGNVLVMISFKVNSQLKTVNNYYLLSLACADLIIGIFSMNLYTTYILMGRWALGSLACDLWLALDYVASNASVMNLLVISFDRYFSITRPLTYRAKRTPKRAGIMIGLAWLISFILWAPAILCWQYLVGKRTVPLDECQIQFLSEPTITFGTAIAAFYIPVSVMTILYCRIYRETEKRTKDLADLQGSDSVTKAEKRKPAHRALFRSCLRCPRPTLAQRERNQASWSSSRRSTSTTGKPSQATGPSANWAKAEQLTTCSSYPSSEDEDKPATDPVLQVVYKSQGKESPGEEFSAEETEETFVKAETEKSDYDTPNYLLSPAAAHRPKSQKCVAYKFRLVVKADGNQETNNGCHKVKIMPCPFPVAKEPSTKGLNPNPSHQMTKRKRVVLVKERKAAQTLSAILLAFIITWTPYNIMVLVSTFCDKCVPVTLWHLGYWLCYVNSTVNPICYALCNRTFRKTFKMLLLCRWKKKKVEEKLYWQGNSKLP

[6] = molecular target: CB1 (Homo sapiens, UniProt P21554); experiment: subsequent functional assay at CB1
[7] = test system: rat M1-M4; experiment: rat mAChR selectivity, functional assay at rM1-M4; assay type: cell-based
[8] = Eurofins radioligand binding panel; settings: panel of 68 targets
[9] = hepatic microsomal intrinsic clearance, rat; assay type: in vitro ADME; settings: Sprague-Dawley, liver microsomes
[10] = molecular target: T1, hM5; experiment: [3H]-NMS dissociation kinetics with hM5 cell membranes; assay type: binding
[11] = molecular target: T2, human M5 (Homo sapiens, UniProt P08912); experiment: functional calcium mobilization assay in CHO cells stably expressing human M5; assay type: cell-based
T2 sequence (P08912 1-532): T1 sequence (P08912 1-532)

[12] = molecular target: T3, human M4 (Homo sapiens, UniProt P08173); experiment: HTS counter-screen in CHO cells expressing human M4; assay type: cell-based; settings: confirmed HTS hit sample
T3 sequence (P08173 1-479): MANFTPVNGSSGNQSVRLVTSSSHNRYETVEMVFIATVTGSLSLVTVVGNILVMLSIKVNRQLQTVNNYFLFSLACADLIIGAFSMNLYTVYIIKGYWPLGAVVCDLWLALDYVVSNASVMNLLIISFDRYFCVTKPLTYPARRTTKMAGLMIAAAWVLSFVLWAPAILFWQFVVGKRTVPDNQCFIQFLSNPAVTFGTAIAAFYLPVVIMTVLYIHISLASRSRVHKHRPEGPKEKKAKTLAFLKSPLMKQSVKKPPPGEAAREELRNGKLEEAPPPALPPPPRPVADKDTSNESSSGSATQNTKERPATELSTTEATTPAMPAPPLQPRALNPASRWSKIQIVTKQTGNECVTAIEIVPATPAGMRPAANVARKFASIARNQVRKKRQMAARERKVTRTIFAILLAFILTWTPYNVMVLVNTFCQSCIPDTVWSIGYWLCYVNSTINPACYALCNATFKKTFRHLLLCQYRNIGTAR

[13] = molecular target: T4, human M1 (Homo sapiens, UniProt P11229); experiment: HTS counter-screen in CHO cells expressing human M1; assay type: cell-based; settings: confirmed HTS hit sample
T4 sequence (P11229 1-460): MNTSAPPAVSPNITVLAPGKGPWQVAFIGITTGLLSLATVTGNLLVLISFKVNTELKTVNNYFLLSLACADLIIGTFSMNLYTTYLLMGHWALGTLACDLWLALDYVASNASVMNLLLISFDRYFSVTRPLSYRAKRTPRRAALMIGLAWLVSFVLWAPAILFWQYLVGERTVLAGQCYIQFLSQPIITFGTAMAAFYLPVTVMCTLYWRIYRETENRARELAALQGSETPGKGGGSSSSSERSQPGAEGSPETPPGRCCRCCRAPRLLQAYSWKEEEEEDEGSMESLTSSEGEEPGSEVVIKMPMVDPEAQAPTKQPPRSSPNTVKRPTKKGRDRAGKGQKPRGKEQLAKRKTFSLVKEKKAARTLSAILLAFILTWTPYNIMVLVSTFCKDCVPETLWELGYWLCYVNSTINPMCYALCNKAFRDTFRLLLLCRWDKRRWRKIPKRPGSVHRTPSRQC

Chain of CB1 (P21554 whole entry, species assumed): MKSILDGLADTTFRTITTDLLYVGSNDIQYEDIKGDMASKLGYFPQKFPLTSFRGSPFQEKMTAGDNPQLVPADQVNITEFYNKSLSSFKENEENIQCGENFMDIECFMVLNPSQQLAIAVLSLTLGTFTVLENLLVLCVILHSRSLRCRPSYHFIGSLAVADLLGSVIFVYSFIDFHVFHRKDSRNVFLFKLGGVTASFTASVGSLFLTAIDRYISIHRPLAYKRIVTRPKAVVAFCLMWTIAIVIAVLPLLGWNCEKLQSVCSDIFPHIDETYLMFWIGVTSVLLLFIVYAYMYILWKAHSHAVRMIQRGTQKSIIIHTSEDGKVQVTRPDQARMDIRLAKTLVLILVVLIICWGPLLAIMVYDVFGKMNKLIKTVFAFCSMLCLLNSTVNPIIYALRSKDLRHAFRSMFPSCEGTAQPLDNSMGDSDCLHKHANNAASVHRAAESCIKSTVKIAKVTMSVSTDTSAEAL

`O=C(c1ccc(F)c(F)c1)N1CCN2C(=O)c3ccccc3C12c1ccccc1` (centres unmarked) [4g] showed an IC50 [1] of over 30 µM.
For `O=C(c1ccc(F)c(F)c1)N1CCN2C(=O)c3ccccc3[C@@]12c1ccc(Cl)cc1` [compound 8, (S)-9b-(4-chlorophenyl)-1-(3,4-difluorobenzoyl)-2,3-dihydro-1H-imidazo[2,1-a]isoindol-5(9bH)-one], the “Predicted CLhep” value ([2]; from CLint in well-stirred model, uncorrected for fraction unbound in plasma) was 14 mL/min/kg, the CLint scaled ([2]; liver microsomes) was 20 mL/min/kg and the clearance [3] was 3 mL/min/kg. The CLint scaled at 1 µM [4] was 2.6 mL/min/kg, the “competition with [3H]-NMS for binding to hM5” value [5] was “no competition; also recorded: does not bind at the M5 orthosteric site” and the “activity at human M1-M4” value [1] was “inactive”. The IC50 [1] was over 30 µM, the “functional activity at CB1” value [6] was “no functional activity” and the “activity at rat M1-M4” value [7] was “inactive”. For the same compound, the IC50 ([7]; read-out: rM1-M4 IC50, each of rat M1, M2, M3, M4) was over 30 µM, the “number of targets with significant binding (>50% inhibition @10 μM)” value [8] was 1 and the CLint scaled at 1 µM [9] was 24 mL/min/kg. For the same compound, the “[3H]-NMS dissociation t1/2” value ([10]; atropine (+8), N=3) was 1.15 h and the “effect on the dissociation rate of [3H]-NMS” value ([10]; hM5 cell membranes) was “decreased the dissociation rate”.
For `O=C(c1ccc(F)cc1)N1CCN2C(=O)c3ccccc3C12c1ccccc1` (centres unmarked) [compound 1], the IC50 [11] was over 10 µM, the IC50 [1] was over 30 µM and the “activity on M4” value [12] was “inactive”. The “activity on M1” value [13] was “inactive”.
`O=C(c1ccc(F)c(F)c1)N1CCN2C(=O)c3ccccc3C12c1ccc(Cl)cc1` (centres unmarked) [5g] gave an IC50 [1] of over 30 µM.
